Legend:
Test in all cases: drug sensitivity score (DSS) (DSS (unitless, 0-50 scale)); higher = more sensitive (stronger viability inhibition); extreme values may be limits of the assay
Details in all cases: 72 h; culture: 2D
[1] = tested on: WM165
How it was run: (§1)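 Patient-derived melanoma cultures and melanoma cell lines were grown in 2D in 384-well plates with a 527-compound oncology library at five concentrations spanning a 10,000-fold range, with 1000–1500 cells per well for the cultures. CellTiter-Glo luminescence gave viability after 72 h at 37 °C. The drug sensitivity score is a modified area-under-curve measure derived from dose-response curves fitted in the in-house Breeze software.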

[2] = tested on: Bowes
How it was run: as §1

[3] = tested on: SK-MEL-28
How it was run: as §1

[4] = tested on: FM-MEL-3
How it was run: as §1

[5] = tested on: FM-MEL-2
How it was run: as §1

[6] = tested on: WM852
How it was run: as §1

[7] = tested on: SK-MEL-2
How it was run: as §1

[8] = tested on: FM-MEL-6
How it was run: as §1

SMILES	drug sensitivity score [1]	drug sensitivity score [2]	drug sensitivity score [3]	drug sensitivity score [4]	drug sensitivity score [5]	drug sensitivity score [6]	drug sensitivity score [7]	drug sensitivity score [8]
COc1cc([C@@H]2c3cc4c(cc3[C@@H](O[C@@H]3O[C@@H]5CO[C@@H](c6cccs6)O[C@H]5[C@H](O)[C@H]3O)[C@H]3COC(=O)[C@H]23)OCO4)cc(OC)c1O [Teniposide]	0	0	0	0	0	0	0	0
Nc1nc(Cl)nc2c1ncn2[C@@H]1O[C@H](CO)[C@@H](O)[C@@H]1F [Clofarabine]	16.6	10.9	10.8	11.8	2.4	8.6	7.6	9.6
COc1cc(Nc2ncc(F)c(Nc3ccc4c(n3)N(COP(=O)(O)O)C(=O)C(C)(C)O4)n2)cc(OC)c1OC [Fostamatinib]	3.5	2	2	2.1	4.6	0.5	0	1.9
CC[C@@H]1[C@H](F)C(=O)N[C@@H]1COc1nccc2cc(C(N)=O)c(OC)cc12	1.7	1.4	0	0.2	1.1	0.6	0	0
CNC(=O)c1ccc(N2C(=S)N(c3cnc(C#N)c(C(F)(F)F)c3)C(=O)C23CCC3)cc1F [Apalutamide]	0	0	0	0	0	0	0	0
CCCCCCCCc1ccc(CCC(N)(CO)CO)cc1 [Fingolimod]	6.3	8.5	6.2	7.5	6.2	7	5.7	6.4
COc1cc2ncnc(Nc3ccc(F)c(Cl)c3)c2cc1OCCCN1CCOCC1 [Gefitinib]	4.6	2.9	2.9	2.4	2.6	3	0	2.7
O=C(O)c1ccc(-c2c[nH]c3ncc(-c4ccccc4)cc23)cc1C1CCCC1	1.2	0	0.7	0	0	0	0	0
CNC(=O)c1cccc(-c2ccc3c(N4CCOC[C@@H]4C)nc(N4CCOC[C@@H]4C)nc3n2)c1 [Vistusertib]	12.5	14	12.1	11.6	11	8.5	8.8	12.6
CC(C)(O)CC(=O)NCCn1ccc2ncnc(Nc3ccc(Oc4cccc(C(F)(F)F)c4)c(Cl)c3)c21 [TAK-285]	0	1.4	0	0	0	0	0	0
Cc1c(-c2ccc(N3CCc4cccc(C(=O)Nc5nc6ccccc6s5)c4C3)nc2C(=O)O)cnn1CC12CC3CC(CC(C3)C1)C2	0	0	0	6.7	1.5	0	0	0
Cn1nnc2c(C(N)=O)ncn2c1=O [Temozolomide]	0	0	0	0	0	0	0	0
O=C(Nc1nc2cccc(-c3ccc(CN4CCS(=O)(=O)CC4)cc3)n2n1)C1CC1 [Filgotinib]	0.7	4.5	0	0	0	5.9	0	4.5
CC(C)C[C@H](NC(=O)[C@H](CCc1ccccc1)NC(=O)CN1CCOCC1)C(=O)N[C@@H](Cc1ccccc1)C(=O)N[C@@H](CC(C)C)C(=O)[C@@]1(C)CO1 [Carfilzomib]	29.6	31.7	17	17.4	11	24.5	22.5	20.4
CC(=O)c1cc2c(o1)C(=O)c1ccccc1C2=O [Napabucasin]	27	20.5	16.8	19.6	4.2	19.1	15.7	22.1
CC1(C)OCCn2c1nc1c(N3CCOCC3)nc(-c3cnc(N)nc3)nc12 [GDC-0084]	8.4	9.4	7.7	8.4	9.6	7.7	8.1	7.8
Nc1ccccc1NC(=O)c1ccc(CNc2nccc(-c3cccnc3)n2)cc1 [Mocetinostat]	11.9	6.4	9.9	8.4	6.7	1.7	9.4	11.4
CCC1(c2ccc(N)cc2)CCC(=O)NC1=O (centres undefined) [Aminoglutethimide]	0	0	0	0	0	0	0	0
Nc1ncnc2c1nc(N)n2[C@@H]1O[C@H](CO)[C@@H](O)[C@H]1O [8-amino-adenosine]	23.2	16.3	22.6	18.5	19.4	18.1	20.9	20.5
CO[C@H]1CC[C@H](N2C(=O)CNc3ncc(-c4ccc(C(C)(C)O)nc4)nc32)CC1 [CC-223]	7.1	4.1	5.2	5.1	7.4	4.2	3.1	5.9
C[C@@H]1CN(C(=O)c2ccc(NC(=O)c3cc(O[C@H](C)c4c(Cl)ccc(F)c4Cl)c(N)nn3)cc2)C[C@H](C)N1 [Ensartinib]	0.7	1.6	0	2.6	0.5	0.4	0	1.5
Nc1cccc2c1C(=O)N(C1CCC(=O)NC1=O)C2=O (centres undefined) [Pomalidomide]	0	0	0	0	0	0	0	0

SMILES	drug sensitivity score [1]	drug sensitivity score [2]	drug sensitivity score [3]	drug sensitivity score [4]	drug sensitivity score [5]	drug sensitivity score [6]	drug sensitivity score [7]	drug sensitivity score [8]
CC(C)(C)NC(=O)[C@H]1CC[C@H]2[C@@H]3CC[C@H]4NC(=O)C=C[C@]4(C)[C@H]3CC[C@]12C [Finasteride]	0	0	0	0	0	0	0	0
CN[C@@H](C)C(=O)N[C@H](C(=O)N1CCC[C@H]1c1nc(C(=O)c2ccc(F)cc2)cs1)C1CCCCC1 [NVP-LCL161]	0	3	0.9	4.5	14.9	2.4	0.2	3.9
C#Cc1cccc(Nc2ncnc3cc4c(cc23)OCCOCCOCCO4)c1 [Icotinib]	0	0	0.1	0.1	0.4	0.1	0	0.9
COc1ccc(Cn2ccc3ccc(C(=O)NO)cc32)cc1	1.6	0	0.2	0.3	0	0.6	0	0
COc1cc2c(Oc3ccc(NC(=O)C4(C(=O)Nc5ccc(F)cc5)CC4)cc3F)ccnc2cc1OCCCN1CCOCC1 [Foretinib]	2.6	5.1	2.6	3.2	3.1	2.2	0	0.9
O=C1CCc2c(Oc3ccc4c(c3)[C@@H]3[C@H](O4)[C@H]3c3nc4cc(C(F)(F)F)ccc4[nH]3)ccnc2N1 [BGB-283]	15.6	4	16.5	16.5	12.1	4.5	7.4	6.2
CN1CCN(C(=O)c2ccc3cc(CCNc4ncnc5ccc(C#N)cc45)ccc3c2)CC1 [Senexin B]	0	0	0	1.2	1	0.9	0	0.1
CCc1c(C(=O)C(N)=O)c2c(OCC(=O)O)cccc2n1Cc1ccccc1 [Varespladib]	0	0	0	0	0	0	0	0
Cc1ncc(-c2ccnc(Nc3ccc(S(C)(=O)=O)cc3)n2)n1C(C)C [AZD-5438]	10.6	10.7	9.9	4.7	2.2	6.2	4.2	7
COc1cccc(-c2ccc(NC(=O)C3=C(C(=O)O)CCC3)c(F)c2)c1 [Vidofludimus]	1.3	0.4	0	0.3	0	0	0	0
Cc1ccc(NC(=O)c2ccc(CN3CCN(C)CC3)cc2)cc1Nc1nccc(-c2cccnc2)n1 [Imatinib]	0.1	1	0.2	0	0.8	0.7	0	0
CC[C@@H]1C(=O)N(C)c2cnc(Nc3ccc(C(=O)NC4CCN(C)CC4)cc3OC)nc2N1C1CCCC1 [BI 2536]	19.6	19.7	3.5	4.3	1.7	18	10.5	6.7
CC(=O)[C@]1(O)Cc2c(O)c3c(c(O)c2[C@@H](O[C@H]2C[C@H](N)[C@H](O)[C@H](C)O2)C1)C(=O)c1ccccc1C3=O [Idarubicin]	15.4	5.4	8.4	10.9	8.4	4.8	9.7	8.1
Cn1cc(CNCC2CCN(c3ncc(C(=O)NO)cn3)CC2)c2ccccc21 [Quisinostat]	16.3	9	10.7	11.3	13.4	5.7	13.5	10.6
O=c1[nH]cc(F)c(=O)[nH]1 [Fluorouracil]	2.3	0	0.7	0.4	1.7	0	0	0.7
CC(C)N(C[C@H]1O[C@@H](n2cnc3c(N)ncnc32)[C@H](O)[C@@H]1O)[C@H]1C[C@@H](CCc2nc3cc(C(C)(C)C)ccc3[nH]2)C1 [Pinometostat]	0	0	0	0	0	0	0	0
O=C(Nc1cccc(NC(=O)c2cccc(O)c2O)c1)c1cccc(O)c1O [MST-312]	16	11.4	8.4	10.3	6.1	6.8	6.7	4
C[C@@H]1C=C2C(=O)O[C@@H]3CC[C@H](C1)[C@]23O [Galiellalactone]	6.9	8.4	5.8	5.2	2.9	5.1	0	0.7
C[C@H]1CNCCCN1S(=O)(=O)c1cccc2cncc(F)c12 [Ripasudil]	0.1	0	0	0	0	0	0	0
Cc1nc(NC(=O)N2CCC[C@H]2C(N)=O)sc1-c1ccnc(C(C)(C)C(F)(F)F)c1 [Alpelisib]	0.6	0.3	1.2	2.7	2.1	1.9	0	0.7
CCCCc1nc2cc(/C=C/C(=O)NO)ccc2n1CCN(CC)CC [Pracinostat]	16.8	9.2	12.9	13.3	14.5	9.1	14	14

From the supplement of paper PMC8633005
